Reference: the NIST ThermoML archive (doi:10.1016/j.jct.2004.09.014)

Assay: xn = mol fraction of the nth substance listed
Conditions: 101.3 kPa, Liquid

COCCOCCO [2-(2-methoxyethoxy)ethanol] + CCOC(C)(C)C
mass density [kg/m3]
Conditions	293.15 K	298.15 K	303.15 K	308.15 K	313.15 K
x2 = 0	1020.8	1016.4	1011.83	1007.69	1003.22
x2 = 0.0501	1008.17	1003.25	998.3	993.76	988.94
x2 = 0.1	995.15	990.04	984.9	980.19	975.19
x2 = 0.1459	982.68	977.43	972.25	967.46	962.35
x2 = 0.1998	967.77	962.42	957.22	952.39	947.16
x2 = 0.2556	951.99	946.59	941.41	936.49	931.19
x2 = 0.3031	938.38	932.91	927.71	922.72	917.37
x2 = 0.3521	924.22	918.7	913.47	908.42	902.96
x2 = 0.4004	910.16	904.58	899.35	894.26	888.75
x2 = 0.4511	895.34	889.68	884.41	879.28	873.72
x2 = 0.4998	881.09	875.34	870.08	864.91	859.34
x2 = 0.5628	862.65	856.89	851.64	846.47	840.9
x2 = 0.5997	851.96	846.15	840.91	835.75	830.21
x2 = 0.6621	833.91	828.16	822.99	817.83	812.29
x2 = 0.6997	823.14	817.44	812.33	807.17	801.6
x2 = 0.7411	811.55	805.81	800.69	795.54	790.02
x2 = 0.7995	795.39	789.63	784.53	779.35	773.85
x2 = 0.8401	784.28	778.52	773.45	768.28	762.75
x2 = 0.8998	768.16	762.41	757.39	752.25	746.7
x2 = 0.9498	754.72	748.99	744.04	738.99	733.52

COCCOCCOCCO [2-[2-(2-methoxyethoxy)ethoxy]ethanol] + CCOC(C)(C)C
mass density [kg/m3]
Conditions	293.15 K	298.15 K	303.15 K	308.15 K	313.15 K
x2 = 0	1047.29	1042.97	1038.65	1034.33	1030.01
x2 = 0.0504	1037.46	1032.75	1028.05	1023.44	1018.75
x2 = 0.1	1026.36	1021.48	1016.59	1011.83	1006.97
x2 = 0.1509	1014.18	1009.14	1004.22	999.35	994.34
x2 = 0.2025	1000.97	995.85	990.92	985.93	980.82
x2 = 0.2489	988.73	983.55	978.6	973.56	968.35
x2 = 0.3007	974.54	969.31	964.34	959.27	953.99
x2 = 0.3511	960.3	954.96	949.94	944.86	939.57
x2 = 0.3999	946.13	940.72	935.65	930.52	925.15
x2 = 0.4508	930.95	925.44	920.33	915.15	909.71
x2 = 0.5001	915.87	910.23	905.09	899.84	894.39
x2 = 0.5493	900.4	894.71	889.55	884.29	878.77
x2 = 0.6	884.14	878.36	873.18	867.9	862.36
x2 = 0.6503	867.65	861.88	856.69	851.4	845.82
x2 = 0.6998	851.17	845.39	840.21	834.91	829.29
x2 = 0.7491	834.48	828.67	823.52	818.24	812.58
x2 = 0.7999	816.94	811.16	806.01	800.74	795.06
x2 = 0.8509	798.94	793.17	788.08	782.84	777.19
x2 = 0.9001	780.97	775.22	770.16	764.98	759.37
x2 = 0.9498	761.89	756.2	751.24	746.17	740.68

CCOC(C)(C)C [2-ethoxy-2-methylpropane] + COCCO
mass density [kg/m3]
Conditions	293.15 K	298.15 K	303.15 K	308.15 K	313.15 K
x1 = 0.0501	950.05	944.7	939.45	934.22	928.99
x1 = 0.1	936.06	930.57	925.31	919.94	914.61
x1 = 0.1508	921.99	916.4	911.08	905.73	900.29
x1 = 0.2	908.51	902.92	897.66	892.25	886.78
x1 = 0.2512	894.84	889.15	883.86	878.57	873.09
x1 = 0.299	882.19	876.57	871.27	865.98	860.41
x1 = 0.3489	869.14	863.45	858.24	852.9	847.36
x1 = 0.4	856.06	850.34	845.06	839.8	834.21
x1 = 0.4503	843.79	837.98	832.77	827.45	821.87
x1 = 0.499	832.46	826.63	821.36	816.1	810.51
x1 = 0.55	821.14	815.31	810.08	804.81	799.19
x1 = 0.61	808.56	802.72	797.49	792.22	786.6
x1 = 0.6599	798.66	792.76	787.53	782.25	776.65
x1 = 0.7	790.96	785.07	779.87	774.61	769.03
x1 = 0.7511	781.59	775.75	770.56	765.33	759.73
x1 = 0.8	773.01	767.18	762.01	756.8	751.25
x1 = 0.8489	764.84	759.04	753.94	748.76	743.21
x1 = 0.9	756.5	750.81	745.76	740.66	735.16
x1 = 0.949	748.89	743.23	738.32	733.24	727.78
x1 = 1	741.11	735.59	730.85	725.98	720.69
